Laboratory results from PMC10298530, “Synthesis and Anticancer Activity of A-Ring-Modified Derivatives of Dihydrobetulin” (International Journal of Molecular Sciences, 2023).
Where “and” joins values, the source holds several entries; their conditions need not be identical. Equal entries are not always repeated. Where two headings read alike, the source gives them in different places.

Experiments:
HEK293 = test: MTT cell viability assay, HEK293; format: cell-based; conditions: Homo sapiens
Excerpt: Blokhin National Medical Research Center of Oncology (the Ministry of Health of the Russian Federation, Moscow).

HBL-100 cells = test: Cell cycle analysis (DAPI, flow cytometry), HBL-100; format: cell-based, human; conditions: for Cell cycle of HBL-100, G0/G1 / Cell cycle of HBL-100, G2/M / Cell cycle of HBL-100, S-phase / Cell cycle of HBL-100, subG0/G1: dose = IC50
Experimental: (§1) The cells were trypsinized and rinsed with the growth medium. Then, the cells were harvested by centrifugation at 500× g for 3 min, and the supernatant was discarded. The cells were washed with PBS (PanEco, Moscow, Russia) twice and centrifuged under similar conditions. The cells were resuspended in 500 μL of PBS, put into centrifuge tubes and fixed by adding 4.5 mL of 70% ethanol dropwise (on ice). The samples were fixed at 4 °C. Overnight, the fixed cells were centrifugally collected (1000× g, 4 °C, 5 min) and washed again with PBS. The cells were finally resuspended in DAPI with 0.1% Triton X-100 in PBS solution (10 μg/mL, Sigma–Aldrich, St. Louis, MO, USA), and stained for 30 min at room temperature in darkness. For each sample, at least 50,000 cells were analyzed using the CytoFlex S flow cytometer (Beckman Coulter, Brea, CA, USA). Cell cycle populations were quantified from DNA histograms with the FlowJo software (ver. X 10.0.7r2, FlowJo Software, San Jose, CA, USA).

HBL-100/Dox cells [1] = test: Cell cycle analysis (DAPI, flow cytometry), HBL-100/Dox; format: cell-based, human; conditions: for Cell cycle of HBL-100/Dox, G0/G1 / Cell cycle of HBL-100/Dox, G2/M / Cell cycle of HBL-100/Dox, subG0/G1 / Cell cycle of HBL-100/Dox, S-phase: dose = IC50
Experimental: as §1

HBL-100/Dox cells [2] = test: Western blotting of cytochrome c, cleaved caspase-9 and -8, HBL-100/Dox; format: cell-based, human; conditions: 16 h, IC50
Experimental: The supernatant (cytosol fraction) and mitochondrial pellets were then collected, and protein concentration was determined by UV […] using 1–100 μg/mL BSA as standard curve concentrations (UV-2600i spectrophotometer; Shimadzu, Tokyo, Japan).
Then, the same protein amounts (20.0 µg in each lane) were loaded and separated by 4–20% Mini-PROTEAN TGX Stain-Free Protein Gels (Bio-Rad Laboratories, Hercules, CA, USA), followed by transferring onto polyvinylidene difluoride (PVDF) membranes. The membranes were blocked with 1% (w/v) casein in Tris-buffered saline containing 0.1% Tween-20 (TBS-T), and were incubated overnight with primary antibodies (1:1000) of Cytochrome c (D18C7) Rabbit mAb, Cleaved Caspase-9 (Asp330) (E5Z7N) Rabbit mAb, Cleaved Caspase-8 (Asp374) (18C8) Rabbit mAb, and β-Actin (D6A8) Rabbit mAb (Cell Signaling Technology, Danvers, MA, USA) for cytosol and mitohondrial fractions at 4 °C. The next day, the PVDF membranes were washed thrice in TBS-T and incubated with HRP-conjugated secondary antibodies (1:1000) (Cell Signaling Technology, Danvers, MA, USA) for 1 h at RT. Immunoreactive proteins were detected by Clarity Western ECL Substrate (Bio-Rad Laboratories, Hercules, CA, USA) and then analyzed on the ChemiDoc MP Imaging system (Bio-Rad Laboratories, Hercules, CA, USA). The proteins were quantified by densitometry using Image Lab software (version 6.0; Bio-Rad Laboratories, Hercules, CA, USA). To normalize protein expression data, a blot with β-Actin was used.

[3] = system: Active Caspase-3 in HBL-100/Dox cells; test: Flow cytometric analysis of active caspase-3, HBL-100/Dox; format: cell-based, human; conditions: for gMIF, Active Caspase-3: 24 h
Experimental: The cells were detached with accutase (HiMedia Laboratories, Maharashtra, India) and then fixed with 70% ice cold ethanol followed by overnight incubation at 4 °C. The cells were washed twice with PBS, permeabilized using 0.1% Triton X-100 in PBS solution, and subsequently stained with 5 μL of the BD Horizon™ BV605 Rabbit Anti-Active Caspase-3 antibody (BD Biosciences, Franklin Lakes, NJ, USA). The cells were then washed, resuspended in PBS, and analyzed using a CytoFlex S flow cytometer (Beckman Coulter, Brea, CA, USA). Cell fluorescence was evaluated on a CytoFlex S flow cytometer (Beckman Coulter, Brea, CA, USA). The results were analyzed using FlowJo software (ver. X 10.0.7r2, FlowJo Software, San Jose, CA, USA) and represented as geometric mean fluorescence intensity (gMFI).

## COC(=O)[C@]12CC[C@@H](C(C)C)[C@@H]1[C@H]1CC[C@@H]3[C@@](C)(CCC#N)[C@H](C(=O)C(Br)Br)CC[C@@]3(C)[C@]1(C)CC2 [compound 31, 2-Cyano-24,24-dibromo-4-oxo-3,4-seco-3,23-dinorlupan-28-oic acid methyl ester]
HEK293; HEK293, MTT, 72 h of treatment, read-out: IC50 Values (Mean ± SD)
  IC50: 11.5 ± 0.6 µM
HEK293; Table S1, HEK293, read-out: IC50 (mean ± SD)
  IC50: 11.5 ± 0.56 µM
HBL-100 cells; 12 h
  Cell cycle of HBL-100, G0/G1: 59.78±0.94%
  Cell cycle of HBL-100, G2/M: 15.88±0.50%
  Cell cycle of HBL-100, S-phase: 24.35±0.43%
  Cell cycle of HBL-100, subG0/G1: 1.44 ± 0.44%
HBL-100 cells; 13 h
  Cell cycle of HBL-100, G0/G1: 56.56±0.16%
  Cell cycle of HBL-100, G2/M: 16.70±0.71%
  Cell cycle of HBL-100, S-phase: 26.74±0.54%
  Cell cycle of HBL-100, subG0/G1: 1.74±0.05%
HBL-100 cells; 14 h
  Cell cycle of HBL-100, G0/G1: 56.69±0.01%
  Cell cycle of HBL-100, G2/M: 16.96±0.16%
  Cell cycle of HBL-100, S-phase: 26.35±0.16%
  Cell cycle of HBL-100, subG0/G1: 1.74±0.18%
HBL-100 cells; 15 h
  Cell cycle of HBL-100, G0/G1: 57.83±1.04%
  Cell cycle of HBL-100, G2/M: 16.29±0.55%
  Cell cycle of HBL-100, S-phase: 25.88±0.49%
  Cell cycle of HBL-100, subG0/G1: 2.38±0.42%
HBL-100 cells; 16 h
  Cell cycle of HBL-100, G0/G1: 56.91±0.07%
  Cell cycle of HBL-100, G2/M: 18.83±0.14%
  Cell cycle of HBL-100, S-phase: 24.26±0.08%
  Cell cycle of HBL-100, subG0/G1: 4.89±1.93%
HBL-100 cells; 17 h
  Cell cycle of HBL-100, G0/G1: 55.78±0.79%
  Cell cycle of HBL-100, G2/M: 18.39±1.04%
  Cell cycle of HBL-100, S-phase: 25.83±0.24%
  Cell cycle of HBL-100, subG0/G1: 3.50±0.42%
HBL-100 cells; 18 h
  Cell cycle of HBL-100, G0/G1: 56.81±0.03%
  Cell cycle of HBL-100, G2/M: 15.38±0.01%
  Cell cycle of HBL-100, S-phase: 27.81±0.04%
  Cell cycle of HBL-100, subG0/G1: 4.39±0.82%
HBL-100 cells; 24 h
  Cell cycle of HBL-100, G0/G1: 66.48 ± 1.33%
  Cell cycle of HBL-100, G2/M: 4.43 ± 0.50%
  Cell cycle of HBL-100, S-phase: 29.09±0.89%
  Cell cycle of HBL-100, subG0/G1: 8.22 ± 0.59%
HBL-100 cells; HBL-100 (parental) cells, 12-24 h, IC50
  effect on cell cycle progression: blocked or slowed down the cell cycle progression through the G0/G1 phase
HBL-100/Dox cells [1]; 12 h
  Cell cycle of HBL-100/Dox, G0/G1: 50.93±0.43%
  Cell cycle of HBL-100/Dox, G2/M: 18.38±0.34%
  Cell cycle of HBL-100/Dox, subG0/G1: 4.84 ± 1.48%
HBL-100/Dox cells [1]; 12 h, listed as MK
  Cell cycle of HBL-100/Dox, S-phase: 30.69 ± 0.99% and 30.69±0.04%
HBL-100/Dox cells [1]; 13 h
  Cell cycle of HBL-100/Dox, G0/G1: 47.82±0.67%
  Cell cycle of HBL-100/Dox, G2/M: 17.42±0.46%
  Cell cycle of HBL-100/Dox, S-phase: 34.76±0.20%
  Cell cycle of HBL-100/Dox, subG0/G1: 4.89±0.48%
HBL-100/Dox cells [1]; 14 h
  Cell cycle of HBL-100/Dox, G0/G1: 51.68±1.34%
  Cell cycle of HBL-100/Dox, G2/M: 14.54±0.25%
  Cell cycle of HBL-100/Dox, S-phase: 33.78±1.08%
  Cell cycle of HBL-100/Dox, subG0/G1: 4.87±0.60%
HBL-100/Dox cells [1]; 15 h
  Cell cycle of HBL-100/Dox, G0/G1: 52.12±1.18%
  Cell cycle of HBL-100/Dox, G2/M: 14.52±1.40%
  Cell cycle of HBL-100/Dox, S-phase: 33.36±2.57%
  Cell cycle of HBL-100/Dox, subG0/G1: 5.06±0.09%
HBL-100/Dox cells [1]; 16 h
  Cell cycle of HBL-100/Dox, G0/G1: 51.84±0.88%
  Cell cycle of HBL-100/Dox, G2/M: 22.22±1.70%
  Cell cycle of HBL-100/Dox, S-phase: 25.94±2.58%
  Cell cycle of HBL-100/Dox, subG0/G1: 6.55±0.11%
HBL-100/Dox cells [1]; 17 h
  Cell cycle of HBL-100/Dox, G0/G1: 52.16 ± 1.94%
  Cell cycle of HBL-100/Dox, G2/M: 19.82±0.60%
  Cell cycle of HBL-100/Dox, S-phase: 28.02±1.34%
  Cell cycle of HBL-100/Dox, subG0/G1: 9.08±0.39%
HBL-100/Dox cells [1]; 18 h
  Cell cycle of HBL-100/Dox, G0/G1: 57.26±1.18%
  Cell cycle of HBL-100/Dox, G2/M: 25.55±1.12%
  Cell cycle of HBL-100/Dox, S-phase: 17.19±2.31%
  Cell cycle of HBL-100/Dox, subG0/G1: 10.42±0.98%
HBL-100/Dox cells [1]; 24 h
  Cell cycle of HBL-100/Dox, G0/G1: 64.14 ± 0.55%
  Cell cycle of HBL-100/Dox, S-phase: 8.99 ± 0.42%
HBL-100/Dox cells [1]; 24 h, listed as MK
  Cell cycle of HBL-100/Dox, G2/M: 26.87 ± 1.13% and 26.87±0.13%
  Cell cycle of HBL-100/Dox, subG0/G1: 13.47 ± 2.44% and 13.47±0.18%
HBL-100/Dox cells [1]; HBL-100/Dox (resistant) cells, 12-24 h, IC50
  effect on cell cycle progression: blocked or slowed down the cell cycle progression through the G0/G1 phase
HBL-100/Dox cells [2]
  activation of caspase-8: not observed
  activation of caspase-9: sequential activation of initiator caspase-9
  cytochrome c release: provoked the release of cytochrome c from mitochondria to cytosol
[3]; dose 2×IC50
  gMIF, Active Caspase-3: 19252±347
[3]; dose IC50
  gMIF, Active Caspase-3: 13428±202
[3]; after 24 h of MK treatment
  caspase-3 activation in comparison to the HBL-100 cells: doubly pronounced
